This is an account of results in US11453690B2, “Receptor inhibitor, pharmaceutical composition comprising same, and use thereof” (BEIJING TIDE PHARMACEUTICAL CO., LTD., priority 2018, dated 2022).

The target in one test is AT1 Receptor (AT1R) (Homo sapiens (Human), UniProt P30556). Briefly: Measurement of inhibitory activity on AT1 receptor (Tag-lite HTRF, Tb-labeled AT1R cells, angiotensin receptor red agonist). It is filed as binding. The settings on record: 1 h room temperature. Here is the method:
Measurement of Inhibitory Activity on AT1 Receptor ([…])/AT2 Receptor (AT2R)
Through the following steps, the inhibitory activity of the compound on AT1R/AT2R (IC50 value) was determined:
1) An appropriate amount of 1×TLB (Tag-lite Buffer) was prepared and well mixed for use.
2) The compound was diluted by 10 times with ddH2O or DMSO. The compound was then dilute to 4 times of the working concentration with 1×TLB and mixed well for use.
3) 8600 nM Tag-lite angiotensin receptor red agonist was diluted to 12 nM (4×Kd) with 1×TLB.
4) 5 ml 1×TLB was taken into a 15 ml centrifuge tube.
5) After thawing 1 tube of Tb-labeled AT1R/AT2R cells in a 37° C. water bath, the cells were quickly transferred to the 1×TLB in step 4), mixed gently, and centrifuged at 1200 g for 5 minutes at room temperature.
6) The supernatant was aspirated gently, and the cells were resuspended and mixed in 2.7 ml 1×TLB, and then placed at room temperature until use.
7) 10 μl cells were added to all test wells, and 5 μl 4× working solution of the compound from step 2) was added to the corresponding test wells. 5 μl 4× Tag-lite angiotensin receptor red agonist well diluted in step 3) was added to all test wells.
8) After leaving the reaction plate at room temperature for 1 h, data were measured and analyzed using Envision HTRF Reader, and the half inhibitory concentration (IC50) of the compound on AT1R/AT2R was calculated with the GraphPad Prism four-parameter equation.
Background: Time-resolved FRET reads energy transfer from a long-lived donor to a nearby acceptor.

For the next test, the target named is AT2 Receptor (AT2R) (Homo sapiens (Human), UniProt P50052). Briefly: Measurement of inhibitory activity on AT2 receptor (Tag-lite HTRF, Tb-labeled AT2R cells, angiotensin receptor red agonist). Particulars: 1 h room temperature. It is filed as binding.

Molecules are shown by their SMILES. Some results are limits rather than exact numbers.

Sequence of AT1 Receptor (AT1R) (P30556 whole entry): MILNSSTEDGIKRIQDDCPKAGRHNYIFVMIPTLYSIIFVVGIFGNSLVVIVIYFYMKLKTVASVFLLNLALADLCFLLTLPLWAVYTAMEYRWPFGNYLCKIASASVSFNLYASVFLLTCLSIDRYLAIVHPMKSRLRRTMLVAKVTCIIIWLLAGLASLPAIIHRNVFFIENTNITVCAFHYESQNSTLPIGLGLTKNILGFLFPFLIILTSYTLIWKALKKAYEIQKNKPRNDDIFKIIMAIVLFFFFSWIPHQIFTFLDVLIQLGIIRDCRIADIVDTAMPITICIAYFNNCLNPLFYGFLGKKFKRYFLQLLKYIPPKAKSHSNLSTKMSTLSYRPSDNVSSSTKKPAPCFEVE
Sequence of AT2 Receptor (AT2R) (P50052 whole entry): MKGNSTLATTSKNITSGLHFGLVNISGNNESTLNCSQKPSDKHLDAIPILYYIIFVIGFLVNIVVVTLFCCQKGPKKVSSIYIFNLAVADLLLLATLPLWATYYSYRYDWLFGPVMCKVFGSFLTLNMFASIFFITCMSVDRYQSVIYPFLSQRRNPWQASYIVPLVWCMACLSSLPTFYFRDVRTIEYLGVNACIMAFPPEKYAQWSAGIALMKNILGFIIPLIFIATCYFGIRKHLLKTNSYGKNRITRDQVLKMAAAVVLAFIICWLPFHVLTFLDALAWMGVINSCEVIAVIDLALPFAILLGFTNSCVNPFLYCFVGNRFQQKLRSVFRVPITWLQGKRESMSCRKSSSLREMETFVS

As to `CCN(Cc1ccccc1)C(=O)N1[C@H]2CC[C@@H]1[C@@H](C(=O)O)N(C(=O)N(c1ccccc1)c1ccccc1)C2` [Compound C155, (1R,2S,5S)-8-(benzyl (ethyl)carbamoyl)-3-(diphenylcarbamoyl)-3,8-diazabicyclo [3.2.1]octane-2-carboxylic acid], the IC50 (as a rule, the midpoint of a concentration-inhibition curve) is greater than 10 µM on AT1 Receptor (AT1R) and 0.00903 µM at AT2 Receptor (AT2R).

For `CN(Cc1ccc(Cl)cc1)C(=O)N1[C@H]2CC[C@@H]1[C@@H](C(=O)O)N(C(=O)N(c1ccccc1)c1ccccc1)C2` [Compound C150, (1R,2S,5S)-8-((4-chlorobenzyl) (methyl)carbamoyl)-3-(diphenylcarbamoyl)-3,8-diazabicyclo [3.2.1]octane-2-carboxylic acid], the IC50 is greater than 10 µM at AT1 Receptor (AT1R) and 0.00982 µM at AT2 Receptor (AT2R).

Turning to `CN(Cc1ccccc1Cl)C(=O)N1[C@H]2CC[C@@H]1[C@@H](C(=O)O)N(C(=O)N(c1ccccc1)c1ccccc1)C2` [Compound C149, (1R,2S,5S)-8-((2-chlorobenzyl) (methyl)carbamoyl)-3-(diphenylcarbamoyl)-3,8-diazabicyclo [3.2.1]octane-2-carboxylic acid], the IC50 on AT1 Receptor (AT1R) was greater than 10 µM; at AT2 Receptor (AT2R), 0.0166 µM.

In the case of `O=C(O)[C@@H]1[C@H]2CC[C@@H](CN1C(=O)N(c1ccccc1)c1ccccc1)N2C(=O)N(c1ccccc1)c1ccccc1` [Compound C5, (1R,2S,5S)-3,8-bis (diphenylcarbamoyl)-3,8-diazabicyclo [3.2.1]octane-2-carboxylic acid], the results for the IC50 at AT1 Receptor (AT1R) and on AT2 Receptor (AT2R) were greater than 10 µM and 0.0153 µM, respectively.

Consider `O=C(O)[C@@H]1[C@H]2CC[C@@H](CN1C(=O)N1c3ccccc3C=Cc3ccccc31)N2C(=O)C(c1ccccc1)c1ccccc1` [Compound C10, (1R,2S,5S)-3-(5H-dibenzo[b,f]azepine-5-carbonyl)-8-(2,2-diphenylacetyl)-3,8-diazabicyclo [3.2.1]octane-2-carboxylic acid], for which the IC50 was greater than 10 µM on AT1 Receptor (AT1R) and 0.0588 µM on AT2 Receptor (AT2R).

Consider `CN(Cc1ccccn1)C(=O)N1[C@H]2CC[C@@H]1[C@@H](C(=O)O)N(C(=O)C(c1ccccc1)c1ccccc1)C2` [Compound C123, (1R,2S,5S)-3-(2,2-diphenylacetyl)-8-(methyl(pyridine-2-ylmethyl)carbamoyl)-3,8-diazabicyclo [3.2.1]octane-2-carboxylic acid], for which the IC50 is greater than 10 µM at AT1 Receptor (AT1R) and 0.0117 µM at AT2 Receptor (AT2R).
